Measured values taken from ChEMBL document CHEMBL1201862, “PubChem BioAssay data set” (2004).
Values belong to the compound of their own block, whether it stands above or below them. Activity calls are given as the source filed them.

Tests used:
HEK293 [1] = test: inhibition of NOD1-driven NF-kB reporter – cell-based, luminescence, uHTS, primary screen (AID 1578); format: functional; details: Homo sapiens
HEK293 [2] = test: cells; format: functional, cell-based; details: Homo sapiens
HEK293 [3] = test: cells; format: functional, cell-based; details: Homo sapiens; remark: listed apart in the source
[4] = target: Nucleotide-binding oligomerization domain-containing protein 2 (Homo sapiens, UniProt Q9HC29); test: inhibition of NOD2-driven NF-kB reporter – cell-based, luminescence, uHTS, HEK293 (AID 1566); format: functional
HEK293 [5] = test: NOD2 signaling inhibitors in MDP-stimulated cells, cell-based, uHTS, luminescence (AID 2001); format: functional; details: Homo sapiens
HEK293 [6] = test: cells; format: functional, cell-based; details: Homo sapiens; remark: listed apart in the source
[7] = target: T1, High affinity choline transporter 1 (Homo sapiens, UniProt Q9GZV3); test: human choline transporter blockers, potency – cell-based, 5-point CRC, membrane potential dye, dose response (AID 504840); format: functional
T1 sequence (Q9GZV3 whole entry): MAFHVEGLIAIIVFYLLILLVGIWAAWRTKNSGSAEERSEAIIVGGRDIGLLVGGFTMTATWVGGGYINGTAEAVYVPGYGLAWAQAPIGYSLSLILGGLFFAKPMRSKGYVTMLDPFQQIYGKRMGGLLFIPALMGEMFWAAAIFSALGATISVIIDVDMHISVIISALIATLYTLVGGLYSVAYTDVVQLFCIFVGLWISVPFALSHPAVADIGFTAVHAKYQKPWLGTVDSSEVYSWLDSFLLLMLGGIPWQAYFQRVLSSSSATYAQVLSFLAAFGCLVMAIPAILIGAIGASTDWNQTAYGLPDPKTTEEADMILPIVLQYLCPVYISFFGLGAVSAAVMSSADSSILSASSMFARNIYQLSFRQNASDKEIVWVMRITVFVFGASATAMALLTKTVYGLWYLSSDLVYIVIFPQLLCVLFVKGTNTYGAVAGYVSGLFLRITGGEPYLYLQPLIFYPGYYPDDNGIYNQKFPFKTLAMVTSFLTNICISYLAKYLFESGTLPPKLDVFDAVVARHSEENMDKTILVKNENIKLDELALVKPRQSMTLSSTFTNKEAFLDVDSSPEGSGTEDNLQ

[8] = reduction of Shn3 3'UTR-driven luciferase in osteoblasts – cell-based, Clone20 osteoblasts, firefly luciferase, cherry-picked, dose response (AID 624132); format: functional;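 note: firefly luciferase luminescence from reporter carrying the Shn3 3'UTR in osteoblasts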
[9] = loss of viability in HepG2 cells – cell-based, CellTiter-Glo, cherry-picked, cytotoxicity control for Shn3 inhibitor project, dose response (AID 624134); format: functional
[10] = non-specific 3'UTR reporter inhibition in Clone20-Shn3RL – cell-based, Renilla luciferase, cherry-picked, counter-screen for Shn3 inhibitor project, dose response (AID 624133); format: functional
Cytochrome P450 1A2 = target: T2, Cytochrome P450 1A2 (Homo sapiens, UniProt P05177);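 note: PubChem cytochrome P450 panel assay, CYP1A2 panel member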
T2 sequence (P05177 whole entry): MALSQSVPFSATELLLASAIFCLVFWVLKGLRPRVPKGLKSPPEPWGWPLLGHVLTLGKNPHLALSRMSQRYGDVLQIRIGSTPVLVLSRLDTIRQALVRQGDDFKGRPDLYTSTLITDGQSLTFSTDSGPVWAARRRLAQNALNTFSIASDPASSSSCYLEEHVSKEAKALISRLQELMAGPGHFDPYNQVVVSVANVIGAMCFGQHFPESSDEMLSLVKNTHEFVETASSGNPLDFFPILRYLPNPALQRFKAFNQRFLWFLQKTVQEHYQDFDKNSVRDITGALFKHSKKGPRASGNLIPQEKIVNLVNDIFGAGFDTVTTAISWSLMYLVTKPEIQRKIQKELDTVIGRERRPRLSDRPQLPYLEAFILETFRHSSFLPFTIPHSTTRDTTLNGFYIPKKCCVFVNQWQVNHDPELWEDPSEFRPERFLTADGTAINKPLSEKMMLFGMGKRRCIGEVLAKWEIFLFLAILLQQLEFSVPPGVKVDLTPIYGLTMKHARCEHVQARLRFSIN

Cytochrome P450 3A4 = Cytochrome P450 3A4 (Homo sapiens, UniProt P08684);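 note: CYP3A4 tested as one member of a cytochrome P450 panel screen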
Cysteine protease ATG4B = target: T3, Cysteine protease ATG4B (Homo sapiens, UniProt Q9Y4P1); format: functional;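 note: Fluorescence-based dose-response confirmation assay measuring inhibition of ATG4B activity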
T3 sequence (Q9Y4P1 whole entry): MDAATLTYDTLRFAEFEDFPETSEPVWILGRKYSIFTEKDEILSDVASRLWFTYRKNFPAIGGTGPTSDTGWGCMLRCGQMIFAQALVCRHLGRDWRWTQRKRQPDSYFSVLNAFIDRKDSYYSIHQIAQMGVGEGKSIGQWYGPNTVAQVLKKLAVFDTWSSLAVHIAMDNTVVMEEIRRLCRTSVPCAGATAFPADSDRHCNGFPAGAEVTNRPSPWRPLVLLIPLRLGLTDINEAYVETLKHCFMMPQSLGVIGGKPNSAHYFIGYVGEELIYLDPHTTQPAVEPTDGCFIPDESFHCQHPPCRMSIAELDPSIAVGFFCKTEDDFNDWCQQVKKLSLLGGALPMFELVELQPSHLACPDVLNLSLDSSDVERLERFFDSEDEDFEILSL

Phospholipase A2 = Phospholipase A2 (Homo sapiens, UniProt P04054); format: functional;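 note: confirmatory dose-response counterscreen on phospholipase A2, testing hits that came from an ultra-high-throughput screen for ATG4B inhibitors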
HEK293 [11] = test: cells; format: functional, cell-based; details: Homo sapiens; remark: listed apart in the source
[12] = target: T4, Nuclear receptor subfamily 0 group B member 1 (Homo sapiens, UniProt P51843); test: Luminescence-based cell-based high throughput dose response assay for inhibitors of the orphan nuclear receptor subfamily 0, group B, member 1 (DAX1; NR0B1). [Related pubchem assays (depositor defined):AID504766, AID504790]; format: functional
T4 sequence (P51843 whole entry): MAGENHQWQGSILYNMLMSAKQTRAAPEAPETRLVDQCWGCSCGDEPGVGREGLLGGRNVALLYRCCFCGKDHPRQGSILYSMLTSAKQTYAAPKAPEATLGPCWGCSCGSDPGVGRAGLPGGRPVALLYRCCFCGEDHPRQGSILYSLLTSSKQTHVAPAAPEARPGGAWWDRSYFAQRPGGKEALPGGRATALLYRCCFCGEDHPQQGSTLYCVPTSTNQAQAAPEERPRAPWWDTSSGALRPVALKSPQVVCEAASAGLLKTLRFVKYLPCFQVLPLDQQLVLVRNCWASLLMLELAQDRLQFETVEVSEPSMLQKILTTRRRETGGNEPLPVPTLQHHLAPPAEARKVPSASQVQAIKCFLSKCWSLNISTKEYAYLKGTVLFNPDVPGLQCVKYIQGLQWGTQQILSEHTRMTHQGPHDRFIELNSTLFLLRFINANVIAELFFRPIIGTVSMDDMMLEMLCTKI

Cytochrome P450 2C9 = Cytochrome P450 2C9 (Homo sapiens, UniProt P11712)
[13] = target: T5, Ubiquitin-conjugating enzyme E2 N (Homo sapiens, UniProt P61088); format: functional;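 note: Dose-response confirmation in a TR-FRET assay detecting UBC13-driven polyubiquitin chain formation, inhibition measured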
T5 sequence (P61088 whole entry): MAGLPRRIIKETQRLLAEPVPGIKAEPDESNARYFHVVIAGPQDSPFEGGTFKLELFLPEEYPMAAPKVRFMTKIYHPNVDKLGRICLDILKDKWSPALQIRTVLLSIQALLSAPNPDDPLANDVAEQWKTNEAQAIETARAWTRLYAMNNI

[14] = NIH-3T3 fibroblast cytotoxicity, dose response, cytotoxicity control, cell-based, fluorescence, Alamar Blue, secondary assay (AID 2327); format: functional;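 note: NIH-3T3 mouse fibroblasts cultured with fluconazole at 8 µg/mL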
[15] = fluconazole-exposed Candida albicans growth modulators – fluorescence, retest, confirmation (AID 2467); format: functional, cell-based
[16] = Trypanosoma cruzi growth suppression in host cells – NIH3T3 host cells, beta-gal luminescence, confirmation (AID 2044); format: functional, cell-based;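 note: intracellular parasites grown in NIH/3T3 mouse fibroblasts as host cells; luminescent beta-galactosidase reporter signal from transgenic T. cruzi replicating inside host cells; inhibitors lower the luminescence signal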
[17] = NIH3T3 cell viability loss – ATP luminescence, mouse fibroblasts, counter-screen, dose response (AID 2010); format: functional, cell-based;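 note: cells exposed to compound for about 90 hours before reading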
Cytochrome P450 2D6 = Cytochrome P450 2D6 (Homo sapiens, UniProt P10635);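 note: CYP2D6 member of a cytochrome P450 panel assay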
Cytochrome P450 2C19 = Cytochrome P450 2C19 (Homo sapiens, UniProt P33261); test: Cytochrome panel assay with activity outcomes. Panel member name: p450-cyp2c19 Compounds with AC50 equal or less than 10 uM are considered active; format: functional; details: read-out: AC50
Cytochrome P450 2C19, sequence (P33261 whole entry): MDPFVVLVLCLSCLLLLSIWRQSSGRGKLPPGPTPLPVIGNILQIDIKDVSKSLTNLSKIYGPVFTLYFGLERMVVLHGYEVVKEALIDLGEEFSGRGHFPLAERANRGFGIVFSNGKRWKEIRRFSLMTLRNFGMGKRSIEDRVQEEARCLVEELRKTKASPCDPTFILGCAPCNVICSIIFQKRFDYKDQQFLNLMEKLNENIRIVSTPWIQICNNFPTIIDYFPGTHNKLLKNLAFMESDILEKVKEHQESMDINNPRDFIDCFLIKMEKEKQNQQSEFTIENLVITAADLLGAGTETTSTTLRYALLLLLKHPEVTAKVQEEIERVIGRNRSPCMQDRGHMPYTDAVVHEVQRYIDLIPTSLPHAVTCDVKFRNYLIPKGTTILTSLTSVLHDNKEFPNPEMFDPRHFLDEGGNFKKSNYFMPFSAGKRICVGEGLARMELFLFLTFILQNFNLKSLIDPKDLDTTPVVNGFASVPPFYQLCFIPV

Cytochrome P450 3A4, sequence (P08684 whole entry): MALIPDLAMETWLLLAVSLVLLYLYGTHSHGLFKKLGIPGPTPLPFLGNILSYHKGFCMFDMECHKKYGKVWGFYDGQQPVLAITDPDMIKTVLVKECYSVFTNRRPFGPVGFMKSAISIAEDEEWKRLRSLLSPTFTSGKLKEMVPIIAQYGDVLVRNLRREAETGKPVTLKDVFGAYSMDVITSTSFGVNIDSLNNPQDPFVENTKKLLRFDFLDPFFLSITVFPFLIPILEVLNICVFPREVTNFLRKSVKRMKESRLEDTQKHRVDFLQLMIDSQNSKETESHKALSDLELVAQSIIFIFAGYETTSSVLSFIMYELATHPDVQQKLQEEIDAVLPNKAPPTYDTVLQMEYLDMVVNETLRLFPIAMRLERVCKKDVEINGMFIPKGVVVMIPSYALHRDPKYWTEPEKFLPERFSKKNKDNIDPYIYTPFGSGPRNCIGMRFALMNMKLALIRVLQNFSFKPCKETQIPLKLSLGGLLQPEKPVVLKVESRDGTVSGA
Phospholipase A2, sequence (P04054 whole entry): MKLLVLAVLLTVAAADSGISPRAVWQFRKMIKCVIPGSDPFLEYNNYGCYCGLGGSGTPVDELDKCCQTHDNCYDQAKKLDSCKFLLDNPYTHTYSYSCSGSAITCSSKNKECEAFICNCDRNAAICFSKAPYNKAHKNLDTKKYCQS
Cytochrome P450 2C9, sequence (P11712 whole entry): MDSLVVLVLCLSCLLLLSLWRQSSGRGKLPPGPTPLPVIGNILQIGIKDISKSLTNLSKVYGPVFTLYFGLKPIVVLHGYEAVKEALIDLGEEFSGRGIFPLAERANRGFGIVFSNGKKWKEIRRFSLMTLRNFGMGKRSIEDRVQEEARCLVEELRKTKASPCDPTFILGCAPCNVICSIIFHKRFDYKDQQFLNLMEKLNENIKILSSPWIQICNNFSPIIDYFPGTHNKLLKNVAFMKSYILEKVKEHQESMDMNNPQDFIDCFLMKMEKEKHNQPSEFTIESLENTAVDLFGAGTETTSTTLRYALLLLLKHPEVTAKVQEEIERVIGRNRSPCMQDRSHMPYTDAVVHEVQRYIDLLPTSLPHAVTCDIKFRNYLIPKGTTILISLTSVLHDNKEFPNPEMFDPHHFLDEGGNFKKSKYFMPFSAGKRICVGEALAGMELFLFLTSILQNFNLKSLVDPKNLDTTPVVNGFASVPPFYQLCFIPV
Nucleotide-binding oligomerization domain-containing protein 2, sequence (Q9HC29 whole entry, the tested form may be a part): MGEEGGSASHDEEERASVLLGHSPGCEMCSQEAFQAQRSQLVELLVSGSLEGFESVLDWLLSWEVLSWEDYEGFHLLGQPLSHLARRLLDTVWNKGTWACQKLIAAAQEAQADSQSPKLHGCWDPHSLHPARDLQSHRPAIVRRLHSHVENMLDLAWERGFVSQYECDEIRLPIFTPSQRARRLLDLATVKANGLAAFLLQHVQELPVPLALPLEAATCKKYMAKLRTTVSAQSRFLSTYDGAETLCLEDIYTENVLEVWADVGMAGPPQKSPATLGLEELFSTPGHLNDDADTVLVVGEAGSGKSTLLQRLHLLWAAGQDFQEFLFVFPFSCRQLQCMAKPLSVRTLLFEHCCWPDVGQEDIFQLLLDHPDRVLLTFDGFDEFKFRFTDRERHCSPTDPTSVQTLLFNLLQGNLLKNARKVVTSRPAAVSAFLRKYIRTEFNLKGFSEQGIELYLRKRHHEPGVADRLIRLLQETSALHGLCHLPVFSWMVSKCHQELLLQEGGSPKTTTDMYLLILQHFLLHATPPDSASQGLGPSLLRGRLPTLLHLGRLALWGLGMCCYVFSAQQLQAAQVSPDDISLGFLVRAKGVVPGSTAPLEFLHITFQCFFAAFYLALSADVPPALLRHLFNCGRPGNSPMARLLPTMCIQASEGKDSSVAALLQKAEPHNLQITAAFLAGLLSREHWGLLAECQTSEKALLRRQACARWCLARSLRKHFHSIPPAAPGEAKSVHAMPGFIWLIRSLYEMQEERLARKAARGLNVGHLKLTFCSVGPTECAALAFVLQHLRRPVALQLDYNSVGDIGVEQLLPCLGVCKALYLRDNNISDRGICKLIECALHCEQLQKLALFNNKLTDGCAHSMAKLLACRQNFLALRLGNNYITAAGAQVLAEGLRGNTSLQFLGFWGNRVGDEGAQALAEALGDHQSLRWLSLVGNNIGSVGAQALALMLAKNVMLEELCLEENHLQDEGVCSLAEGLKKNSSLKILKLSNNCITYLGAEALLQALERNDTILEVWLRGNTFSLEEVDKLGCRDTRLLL
Cytochrome P450 2D6, sequence (P10635 whole entry): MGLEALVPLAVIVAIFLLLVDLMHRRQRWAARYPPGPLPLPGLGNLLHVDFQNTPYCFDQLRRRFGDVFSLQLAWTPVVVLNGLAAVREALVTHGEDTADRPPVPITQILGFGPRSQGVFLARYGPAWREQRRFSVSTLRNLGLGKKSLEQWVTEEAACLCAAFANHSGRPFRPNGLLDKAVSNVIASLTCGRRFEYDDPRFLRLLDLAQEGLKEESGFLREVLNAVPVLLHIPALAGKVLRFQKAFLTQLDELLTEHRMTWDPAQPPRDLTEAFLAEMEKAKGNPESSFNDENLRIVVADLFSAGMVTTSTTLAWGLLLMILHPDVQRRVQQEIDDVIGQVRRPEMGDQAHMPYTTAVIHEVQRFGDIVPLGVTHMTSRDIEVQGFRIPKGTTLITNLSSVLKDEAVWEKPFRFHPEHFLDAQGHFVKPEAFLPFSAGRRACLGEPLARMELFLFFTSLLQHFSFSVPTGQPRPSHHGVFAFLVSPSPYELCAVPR

SMILES: COc1ccc(-c2nc(CN3CCN(c4ncnc5ccccc45)CC3)c(C)o2)c(OC)c1
EC50 (HEK293 [1]): 5.23 µM (active)
IC50 (HEK293 [2]): 6.96 µM (active)
IC50 (HEK293 [3]): 13.7 µM (active)
EC50 [4]: 5.52 µM (active)
IC50 (HEK293 [5]): 6.38 µM (active)
IC50 (HEK293 [6]): > 20 µM (inactive)
IC50 [7]: 16.8 µM (active)
AC50 [8]: 6.38 µM (active)
AC50 [9]: > 70 µM (inactive)
AC50 [10]: 5.24 µM (active)

SMILES: O=C(Nc1ccccc1)N1CC2(CCN(C(=O)Oc3ccccc3)CC2)C1
AC50 (Cytochrome P450 1A2): 20 µM (inconclusive)
AC50 (Cytochrome P450 3A4): inconclusive

IC50 (Cysteine protease ATG4B): 11.5 µM (active)
IC50 (Phospholipase A2): 7.65 µM (active)
SMILES: O=C(c1ccccc1)c1cnc(Nc2ccccc2Cl)s1

SMILES: C[C@@H]1CN(Cc2nc(-c3cccs3)no2)C[C@H](C)O1
IC50 (HEK293 [11]): > 67.5 µM (inactive)
IC50 [12]: > 67.5 µM (inactive)

IC50 (Cysteine protease ATG4B): 17.4 µM (active)
IC50 (Phospholipase A2): 7.99 µM (active)
SMILES: Cc1c(C)c(C)c(CO/N=C/c2cccs2)c(C)c1C

AC50 (Cytochrome P450 1A2): 25.1 µM (inconclusive)
AC50 (Cytochrome P450 2C9): 25.1 µM (inconclusive)
AC50 (Cytochrome P450 3A4): inconclusive
SMILES: O=C(Oc1ccccc1)N1CCC2(CC1)CN(c1ncccn1)C2

IC50 [13]: > 20 µM (inactive)
IC50 (Cysteine protease ATG4B): 12.2 µM (active)
IC50 (Phospholipase A2): 9.31 µM (active)
SMILES: CCCCn1c(SCC(=O)Nc2cc(C)n[nH]2)nc2ccsc2c1=O

IC50 (Cysteine protease ATG4B): 18.3 µM (active)
IC50 (Phospholipase A2): 13.4 µM (active)
SMILES: COc1ccc(-c2[nH]nc3c2C(c2ccc(OC(=O)N4CCOCC4)cc2)C(C#N)=C(N)O3)cc1 (stereo unspecified)

SMILES: COC(=O)c1cc(/N=C/c2c(O)oc3ccccc3c2=O)cc(C(=O)OC)c1
IC50 (HEK293 [11]): > 67.5 µM (inactive)
IC50 [12]: > 67.5 µM (inactive)

SMILES: CC1=CC(c2ccccc2)n2nnnc2N1 (stereo unspecified)
IC50 (HEK293 [11]): > 67.6 µM (inactive)
IC50 [12]: > 67.6 µM (inactive)

SMILES: O=C(c1ccccc1)c1ccc2[nH]c(-c3ccc(NC(=O)c4ccccc4Br)cc3)nc2c1
EC50 [14]: 2.97 µM (active)
EC50 [15]: 6.15 µM (active)
EC50 [16]: 1.59 µM (active)
EC50 [17]: 7.33 µM (active)
AC50 (Cytochrome P450 2D6): 14.1 µM (inconclusive)
AC50 (Cytochrome P450 3A4): inconclusive

SMILES: CN(NC1OC(=O)c2ccccc21)c1ccccc1[N+](=O)[O-] (stereo unspecified)
IC50 (HEK293 [11]): > 67.5 µM (inactive)
IC50 [12]: > 67.5 µM (inactive)

AC50 (Cytochrome P450 2C19): 25.1 µM (inconclusive)
AC50 (Cytochrome P450 2C9): 25.1 µM (inconclusive)
AC50 (Cytochrome P450 3A4): inconclusive
SMILES: CCOC(=O)c1c(-c2ccccc2)nc2ccccn12
